# Data as given in US20230250066A1, “HERBICIDAL CINNOLINE DERIVATIVES” (SYNGENTA CROP PROTECTION AG, priority 2020, published 2023).
# How the values were obtained:
# Type in all cases: in vivo
# [1] = test system: Amaranthus retoflexus (AMARE); assay: Pre-emergence herbicidal test; conditions: 1000 g/ha, evaluated after 13 days
# Setaria faberi (SETFA) [2] = assay: Pre-emergence herbicidal test; conditions: 1000 g/ha, evaluated after 13 days
# [3] = test system: Echinochloa crus-galli (ECHCG); assay: Pre-emergence herbicidal test; conditions: 1000 g/ha, evaluated after 13 days
# [4] = test system: Ipomoea hederacea (IPOHE); assay: Pre-emergence herbicidal test; conditions: 1000 g/ha, evaluated after 13 days
# [5] = test system: Abutilon theophrasti (ABUTH); assay: Pre-emergence herbicidal test; conditions: 1000 g/ha, evaluated after 13 days
# Zea mays (ZEAMX) [6] = assay: Pre-emergence herbicidal test; conditions: 1000 g/ha, evaluated after 13 days
# [7] = test system: Abutilon theophrasti (ABUTH); assay: Post-emergence herbicidal test; conditions: 1000 g/ha unless otherwise stated, evaluated after 13 days
# Procedure, shortened: (§1)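 Scored 0–5 for percent damage (0=0%, 5=81-100%) 13 days after spraying, typically at 1000 g/ha in acetone/water (50:50) plus 0.5% Tween 20. Post-emergence plants treated at 8 days old, grown at 24° C/16° C day/night, 14 h light, 65% humidity, watered twice daily.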
# [8] = test system: Amaranthus retoflexus (AMARE); assay: Post-emergence herbicidal test; conditions: 1000 g/ha unless otherwise stated, evaluated after 13 days
# Procedure, shortened: as §1
# [9] = test system: Echinochloa crus-galli (ECHCG); assay: Post-emergence herbicidal test; conditions: 1000 g/ha unless otherwise stated, evaluated after 13 days
# Procedure, shortened: as §1
# [10] = test system: Ipomoea hederacea (IPOHE); assay: Post-emergence herbicidal test; conditions: 1000 g/ha unless otherwise stated, evaluated after 13 days
# Procedure, shortened: as §1
# Setaria faberi (SETFA) [11] = assay: Post-emergence herbicidal test; conditions: 1000 g/ha unless otherwise stated, evaluated after 13 days
# Procedure, shortened: as §1
# Zea mays (ZEAMX) [12] = assay: Post-emergence herbicidal test; conditions: 1000 g/ha unless otherwise stated, evaluated after 13 days
# Procedure, shortened: as §1
SMILES,"percentage damage caused to the plant, five-point scale, AMARE [1]","percentage damage caused to the plant, five-point scale, SETFA (Setaria faberi (SETFA) [2])","percentage damage caused to the plant, five-point scale, ECHCG [3]","percentage damage caused to the plant, five-point scale, IPOHE [4]","percentage damage caused to the plant, five-point scale, ABUTH [5]","percentage damage caused to the plant, five-point scale, ZEAMX (Zea mays (ZEAMX) [6])","percentage damage caused to the plant, ABUTH (five-point scale) [7]","percentage damage caused to the plant, AMARE (five-point scale) [8]","percentage damage caused to the plant, ECHCG (five-point scale) [9]","percentage damage caused to the plant, IPOHE (five-point scale) [10]","percentage damage caused to the plant, SETFA (five-point scale) (Setaria faberi (SETFA) [11])","percentage damage caused to the plant, ZEAMX (five-point scale) (Zea mays (ZEAMX) [12])"
"CS(=O)(=O)c1cccc2c1c(=O)c(C(=O)OCCCCCCCCCc1ccccc1)nn2-c1ccc(OC(F)(F)F)cc1 [Compound P83, 9-phenylnonyl 5-methylsulfonyl-4-oxo-1-[4-(trifluoromethoxy)phenyl]cinnoline-3-carboxylate]",0 (0=0%),0 (0=0%),0 (0=0%),0 (0=0%),0 (0=0%),0 (0=0%),0 (0=0%),0 (0=0%),0 (0=0%),0 (0=0%),0 (0=0%),0 (0=0%)
"CS(=O)(=O)c1cccc2c1c(=O)c(C(=O)OCCCc1ccccc1)nn2-c1ccc(OC(F)(F)F)cc1 [Compound P84, 3-phenylpropyl 5-methylsulfonyl-4-oxo-1-[4-(trifluoromethoxy)phenyl]cinnoline-3-carboxylate]",0 (0=0%),4 (4=61-80%),3 (3=41-60%),0 (0=0%),0 (0=0%),0 (0=0%),1 (1=10-20%),0 (0=0%),2 (2=21-40%),1 (1=10-20%),4 (4=61-80%),0 (0=0%)
"COC(C)(C)CCOC(=O)c1nn(-c2ccc(OC(F)(F)F)cc2)c2cccc(S(C)(=O)=O)c2c1=O [Compound P85, (3-methoxy-3-methyl-butyl) 5-methysulfonyl-4-oxo-1-[4-(trifluoromethoxy)phenyl]cinnoline-3-carboxylate]",0 (0=0%),4 (4=61-80%),4 (4=61-80%),0 (0=0%),0 (0=0%),0 (0=0%),1 (1=10-20%),1 (1=10-20%),3 (3=41-60%),0 (0=0%),4 (4=61-80%),1 (1=10-20%)
"CC(C)(C)CCOC(=O)c1nn(-c2ccc(OC(F)(F)F)cc2)c2cccc(S(C)(=O)=O)c2c1=O [Compound P86, 3,3-dimethylbutyl 5-methylsulfonyl-4-oxo-1-[4-(trifluoromethoxy)phenyl]cinnoline-3-carboxylate]",0 (0=0%),4 (4=61-80%),5 (5=81-100%),0 (0=0%),1 (1=10-20%),1 (1=10-20%),0 (0=0%),0 (0=0%),4 (4=61-80%),0 (0=0%),4 (4=61-80%),0 (0=0%)
"CS(=O)(=O)c1cccc2c1c(=O)c(C(=O)OCCC1CCCCC1)nn2-c1ccc(OC(F)(F)F)cc1 [Compound P87, 2-cyclohexylethyl 5-methylsulfonyl-4-oxo-1-[4-(trifluoromethoxy)phenyl]cinnoline-3-carboxylate]",0 (0=0%),3 (3=41-60%),1 (1=10-20%),1 (1=10-20%),1 (1=10-20%),1 (1=10-20%),1 (1=10-20%),1 (1=10-20%),1 (1=10-20%),0 (0=0%),1 (1=10-20%),0 (0=0%)
"CC(C)CCOC(=O)c1nn(-c2ccc(OC(F)(F)F)cc2)c2cccc(S(C)(=O)=O)c2c1=O [Compound P88, isopentyl 5-methylsulfonyl-4-oxo-1-[4-(trifluoromethoxy)phenyl]cinnoline-3-carboxylate]",0 (0=0%),5 (5=81-100%),4 (4=61-80%),0 (0=0%),0 (0=0%),0 (0=0%),1 (1=10-20%),0 (0=0%),3 (3=41-60%),0 (0=0%),4 (4=61-80%),0 (0=0%)
"CS(=O)(=O)c1cccc2c1c(=O)c(C(=O)OCCCCOCc1ccccc1)nn2-c1ccc(OC(F)(F)F)cc1 [Compound P89, 4-benzyloxybutyl 5-methylsulfonyl-4-oxo-1-[4-(trifluoromethoxy)phenyl]cinnoline-3-carboxylate]",0 (0=0%),4 (4=61-80%),4 (4=61-80%),0 (0=0%),0 (0=0%),0 (0=0%),0 (0=0%),0 (0=0%),3 (3=41-60%),0 (0=0%),4 (4=61-80%),0 (0=0%)
"CCCCCCCCSC(=O)c1nn(-c2ccc(OC(F)(F)F)cc2)c2cccc(S(C)(=O)=O)c2c1=O [Compound P90, S-octyl 5-methylsulfonyl-4-oxo-1-[4-(trifluoromethoxy)phenyl]cinnoline-3-carbothioate]",0 (0=0%),4 (4=61-80%),3 (3=41-60%),0 (0=0%),0 (0=0%),0 (0=0%),0 (0=0%),0 (0=0%),3 (3=41-60%),1 (1=10-20%),4 (4=61-80%),1 (1=10-20%)
